Measured values published in patent US8568736B2, “Polypeptide derivatives of parathyroid hormone (PTH)” (The General Hospital Corporation, priority 1999, dated 2013).
Where two headings read alike, the source gives them in different places. No end group written: not given here.

Legend:
Format in all cases: cell-based
[1] = biological target: T1, truncated human PTH-1 receptor, hΔNt (Homo sapiens, UniProt Q03431); experiment: cAMP stimulation in COS-7 cells transiently transfected with truncated receptor hDeINt; conditions: for Emax: hDeINt, Emax constrained to peptide #7 (20 μM) response
T1 construct: expressed in transfected cells; host or cells: COS-7, transient, pcDNA-1 plasmid derived from HK-WT
T1 sequence (Q03431 with tags, fused parts or gaps limits assumed): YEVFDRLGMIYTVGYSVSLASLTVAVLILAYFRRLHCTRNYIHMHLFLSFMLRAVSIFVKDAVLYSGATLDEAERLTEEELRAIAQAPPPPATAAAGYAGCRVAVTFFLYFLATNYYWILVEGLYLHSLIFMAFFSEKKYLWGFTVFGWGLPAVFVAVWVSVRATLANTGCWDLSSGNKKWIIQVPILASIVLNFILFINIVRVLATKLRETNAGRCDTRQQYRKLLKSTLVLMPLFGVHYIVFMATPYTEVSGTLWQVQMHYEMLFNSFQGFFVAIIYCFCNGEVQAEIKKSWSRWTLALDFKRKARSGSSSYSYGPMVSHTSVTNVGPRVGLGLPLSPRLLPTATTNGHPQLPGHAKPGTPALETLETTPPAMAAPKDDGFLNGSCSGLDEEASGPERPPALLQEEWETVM
Description: COS-7 cells were transfected in 24-well plates when the cells were 85 to 95% of confluency using 200 ng of plasmid DNA that was purified by cesium chloride/ethidium bromide gradient centrifugation for each well. Assays were conducted 72 to 96 hours after transfection.
(§1) Stimulation of cells with peptide analogs was performed in 24-well plates. Cells were rinsed with 0.5 mL of binding buffer and treated with 200 μL of cAMP assay buffer (Dulbecco's modified Eagle's medium containing 2 mM 3-isobutyl-1-methylxanthine, 1 mg/mL bovine serum albumin, 35 mM Hepes-NaOH, pH 7.4) and 100 μL of binding buffer containing varying amounts of peptide analog (final volume=300 μL). The medium was removed after incubation for 1 h at room temperature, and the cells were frozen (−80° C.), lysed with 0.5 mL 50 mM HCl, and refrozen (−80° C.). The cAMP content of the diluted lysate was determined by radioimmunoassay. Where possible, cAMP EC50 and Maximum response values were determined using nonlinear regression (see below).
All calculations were performed using Microsoft Excel. Nonlinear regression analysis of cAMP stimulation data was performed using parameters, defined as the Minimum, Maximum, Emax, midpoint (EC50), and slope of the response curve. The predicted response (yp) for a given dose (x) of peptide was calculated using the following equation: yp=Min+[(Max−Min)/(1+(EC50/x)^slope)]. […] The statistical significance between two data sets was determined using a one-tailed Student's t-test, assuming unequal variances for the two sets.

[2] = biological target: T2, rat PTH-1 receptor (endogenous, ROS 17/2.8 cells) (Rattus norvegicus, UniProt P25961); experiment: cAMP response in osteoblastic ROS 17/2.8 cells; conditions: for Emax: ROS 17/2.8 cells
T2 construct: The rat osteoblastic cell line ROS 17/2.8; endogenous in cells; host or cells: ROS 17/2.8 rat osteoblastic cells
T2 sequence (P25961 27-591): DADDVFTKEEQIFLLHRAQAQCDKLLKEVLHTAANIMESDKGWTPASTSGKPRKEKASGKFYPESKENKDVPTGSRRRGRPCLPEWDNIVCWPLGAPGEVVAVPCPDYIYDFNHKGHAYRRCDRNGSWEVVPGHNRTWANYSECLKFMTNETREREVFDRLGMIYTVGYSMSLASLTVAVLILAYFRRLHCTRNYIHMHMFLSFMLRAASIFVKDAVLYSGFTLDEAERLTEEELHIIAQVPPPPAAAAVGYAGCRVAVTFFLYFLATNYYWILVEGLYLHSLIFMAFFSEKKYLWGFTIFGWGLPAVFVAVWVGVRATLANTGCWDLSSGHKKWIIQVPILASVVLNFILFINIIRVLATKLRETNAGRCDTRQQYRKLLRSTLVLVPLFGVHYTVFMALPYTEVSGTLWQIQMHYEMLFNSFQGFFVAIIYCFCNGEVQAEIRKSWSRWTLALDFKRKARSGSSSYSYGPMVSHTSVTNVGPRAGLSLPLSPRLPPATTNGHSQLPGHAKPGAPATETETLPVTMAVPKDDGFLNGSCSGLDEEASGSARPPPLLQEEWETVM
Description: (§2) The rat osteoblastic cell line ROS 17/2.8 (Majeska, R. J., et al, Endocrinology 107:1494-1503 (1980)) expresses endogenous PTH-1 receptors at levels of 80,000 per cell and the human osteoblastic cell line, SAOS-2, express endogenous PTH-1 receptors at levels of ˜30,000 per cell.
as §1
(§3) All calculations were performed using Microsoft Excel. Nonlinear regression analysis of cAMP stimulation data was performed using parameters, defined as the Minimum, Maximum, Emax, midpoint (EC50), and slope of the response curve. The predicted response (yp) for a given dose (x) of peptide was calculated using the following equation: yp=Min+[(Max−Min)/(1+(EC50/x)^slope)]. The initial parameter values were estimated from the primary data, and the Excel “Solver function” was then used to vary the four parameters in order to minimize the differences between the predicted and actual responses (least-squares method) (Bowen, W., & Jerman, J., Trends in Pharmacol. Sci. 16:413-417 (1995)). The statistical significance between two data sets was determined using a one-tailed Student's t-test, assuming unequal variances for the two sets.

[3] = biological target: T3, human PTH-1 receptor (endogenous, SAOS-2 cells) (Homo sapiens, UniProt Q03431); experiment: cAMP response in osteoblastic SAOS-2 cells
T3 construct: the human osteoblastic cell line, SAOS-2, express endogenous PTH-1 receptors; endogenous in cells; host or cells: SAOS-2 human osteoblastic cells
T3 sequence (Q03431 27-593): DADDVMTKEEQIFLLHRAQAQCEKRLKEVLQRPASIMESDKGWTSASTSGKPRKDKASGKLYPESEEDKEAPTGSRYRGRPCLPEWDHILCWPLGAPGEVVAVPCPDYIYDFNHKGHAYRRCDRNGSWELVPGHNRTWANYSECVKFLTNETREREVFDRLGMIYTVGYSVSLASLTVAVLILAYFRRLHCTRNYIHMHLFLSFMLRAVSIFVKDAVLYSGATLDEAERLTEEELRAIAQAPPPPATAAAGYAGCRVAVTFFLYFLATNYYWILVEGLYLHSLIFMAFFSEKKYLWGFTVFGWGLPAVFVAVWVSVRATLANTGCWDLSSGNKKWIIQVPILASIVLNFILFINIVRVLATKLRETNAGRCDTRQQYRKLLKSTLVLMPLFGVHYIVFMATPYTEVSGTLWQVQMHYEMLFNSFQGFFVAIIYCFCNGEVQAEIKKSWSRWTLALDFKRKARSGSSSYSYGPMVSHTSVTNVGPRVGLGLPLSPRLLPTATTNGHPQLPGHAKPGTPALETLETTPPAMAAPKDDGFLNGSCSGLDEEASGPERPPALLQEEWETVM
Description: as §2, §1, §3

[4] = COS-7 cells, hDeINt truncated receptor, cAMP, read-out: EC50

| Compound | EC50 [1, 4] [µM] | Emax ([1]; COS-7 cells) [picomole/well] | Emax [2] [picomole/well] | EC50 Log M ([3]; SAOS-2 cells, cAMP) | EC50 [2] [nM] | EC50 [3] [nM] | Emax ([3]; SAOS-2 cells) [picomole/well] | EC50 [1] [µM] | potency relative to rPTH(1-34) or hPTH(1-34) (in words) ([1]; COS-7 cells expressing hΔNt) | fold more potent than native PTH(1-14) ([1]; truncated hPTH-1 receptor lacking most of the amino-terminal domain) [fold] | EC50 ([3]; SAOS-2 cells, cAMP, read-out: EC50 (converted)) [nM] |
| --- | --- | --- | --- | --- | --- | --- | --- | --- | --- | --- | --- |
| AVSEIQLMHNLGKH-NH2 [native rPTH(1-14), AVSEIQLMHNLGKH, reference compound] | 313 ± 121 | 222 ± 31 | 376 ± 23 | barely active | – | – | – | – | – | – | – |
| CCCC[C@H](NC(=O)[C@H](CCCNC(=N)N)NC(=O)[C@H](CCC(=O)O)NC(=O)[C@@H](NC(=O)[C@H](CO)NC(=O)[C@H](C)NC(=O)[C@H](CC(C)C)NC(=O)[C@H](Cc1c[nH]cn1)NC(=O)[C@H](CCCCN)NC(=O)CNC(=O)[C@H](CC(C)C)NC(=O)[C@H](CC(N)=O)NC(=O)[C@H](Cc1c[nH]cn1)NC(=O)[C@H](CCCC)NC(=O)[C@H](CC(C)C)NC(=O)[C@H](CCC(N)=O)NC(=O)[C@@H](NC(=O)[C@H](CCC(=O)O)NC(=O)[C@H](CO)NC(=O)[C@@H](NC(=O)[C@H](C)N)C(C)C)[C@@H](C)CC)C(C)C)C(=O)N[C@@H](CCC(N)=O)C(=O)N[C@@H](Cc1c[nH]c2ccccc12)C(=O)N[C@@H](CC(C)C)C(=O)N[C@@H](CCCNC(=N)N)C(=O)N[C@@H](CCCCN)C(=O)N[C@@H](CCCCN)C(=O)N[C@@H](CC(C)C)C(=O)N[C@@H](CCC(N)=O)C(=O)N[C@@H](CC(=O)O)C(=O)N[C@H](C(=O)N[C@@H](Cc1c[nH]cn1)C(=O)N[C@@H](CC(N)=O)C(=O)N[C@@H](Cc1ccc(O)cc1)C(N)=O)C(C)C [[Nle8, 21, Y34]rPTH(1-34), [Nle^8,21,Tyr^34]-rPTH(1-34)NH2, reference compound] | – | 243 ± 63 | 364 ± 6 | – | 0.316 | 0.178 | 272 ± 33 | – | – | – | – |
| AVAEIQLMHARAKHLNSMERVEWLRKKLQDVHNY-NH2 [Peptide #7] | – | 251 ± 39 | 395 ± 1 | – | – | 0.112 | 272 ± 33 | 0.28 ± 0.16 | dramatically more potent | – | – |
| AVAEIQLMHARAKH-NH2 [Peptide #1, AlaValAlaGluIleGlnLeuMetHisAlaArgAlaLysHis-amide] | 2.37 ± 1.06 | 250 ± 61 | 395 ± 1 | – | – | – | 331 | – | – | 100 | – |
| AVAEIQLMHAR-NH2 [compound 6, AlaValAlaGluIleGlnLeuMetHisAlaArg-amide] | 27 ± 12.9 | 243 ± 63 | 377 ± 23 | – | – | – | 235 ± 7 | – | – | – | 75900 |
